One data set has as its system WS hMPC. The experiment in a line: Ki67 and SA-β-gal staining of WS hMPC treated with retrovirus inhibitors. Conditions: WS hMPCs, 10 μM lamivudine (3TC), abacavir (0.2 μM), Raltegravir, vs DMSO solvent control. Type of data set: cell-based, human. The protocol: Cells seeded on coverslip (Thermo Fisher Scientific) were washed by PBS, fixed in 4% paraformaldehyde (PFA), permeabilized in 0.4% Triton X-100, blocked by 10% donkey serum. The coverslip was incubated with primary antibody at 4° C. in blocking buffer, then incubated with secondary antibody at room temperature for 1 h. Nucleus was labelled by Hoechst 33342 (Invitrogen).
For treatment by endogenous viral reverse transcriptase inhibitor and integrase inhibitor, hMPCs were treated by […] abacavir, lamivudine (3TC) and Raltegravir, respectively, medium was replaced every 3 days, followed by new treatment. After treatment of two cell passages, cells were used for Ki67 immunofluorescence, SA-β-gal staining and RNA/DNA extraction.
Cells were fixed by a buffer containing 2% (w/v) formaldehyde and 0.2% (w/v) glutaraldehyde for 5 min, and treated by staining buffer containing 1 mg/mL X-gal at 37° C. overnight.
10 μM lamivudine (3TC), abacavir (0.2 μM) and Raltegravir were added to WS hMPC, respectively, incubated at 37° C., and fresh medium containing each drug was replaced every two days, solvents dissolving above-mentioned drug with DMSO added at a corresponding amount were used as control.
Above-mentioned cells were stained by Ki67 and SA-β-gal.

The next data set has as its system HERVK. As to the kind of experiment: HERVK transposition events (reporter, flow cytometry) and DNA copy number in WS hMPC. It counts as cell-based, human. To be noted: 10 days after incubation. The protocol: The experiment for detecting DNA of HERVK gene by single molecule DNA-FISH was conducted by the National Key Laboratory of Agricultural Microbiology, Huazhong Agricultural University. Senescent cells were successively treated by RNase A (100 μg/mL, dissolved in 2×SSC) at 37° C. for 1 h, treated by 70% formamide dissolved in 2×SSC at 72° C. for 10 min, treated by precooled ethanol (concentration from 80%, 90% to 100%, each treatment for 1 min). Then cells were incubated with HERVK […] specific probe pairs (each probe 10 μM) in hybridization solution (10% deionized formamide, 2×SSC, 10% dextran sulfate and 2 mM VRC) at 42° C. overnight. Washed 3 times by washing buffer (2×SSC, 30% formamide, 0.1% Triton-X 100 and 2 mM VRC), cells were incubated with amplification probes (SFSP-001 and SFTP-001, Spatial FISH, Co., Ltd.) and fluorescent probes (SFFP-001, Spatial FISH, Co., Ltd) together, HERVK DNA was subjected to single molecule detection. Finally, cells were counterstained by DAPI and imaged by confocal microscope.
In brief, to assess transposition events occurred in HERVK during aging process, wild type mesenchymal stem cells of early passage and late passage (P7 generation and P14 generation) were transfected with HERVK reporter plasmid, and meanwhile co-transfected with dsRed, a vector expressing red fluorescence (obtained from Xu Xingzhi's Laboratory, School of Basic Medicine, Shenzhen University) to calculate transfection probability. After the confluence of cells, cells were digested into single cell, and resuspended by PBS, analyzed by flow cytometer BD Influx, the ratio of cells positive for green fluorescence to cells positive for red fluorescence was the probability of transposition events occurred in HERVK.
To construct HERVK transposition reporter vector, first, above-mentioned HERVK fragment was cloned to dsRed vector having KpnI enzyme site mutant (obtained from Xu Xingzhi's Laboratory, School of Basic Medicine, Shenzhen University). GFP reporter (SEQ ID NO: 152) was obtained by PCR amplification from L 1 reporter (gifted by Prof. Wang Jichang, Sun Yat-sen University in Guangzhou, China), GFP reporter was inserted to dsRed-HERVK through KpnI site, contructing HERVK transposition reporter vector.
To assess transposition events occurred for HERVK during aging process, cells of early and late generations were transfected with HERVK reporter plasmid, and meanwhile co-transfected with a vector expressing red fluorescence to calculate transfection probability. After confluence of cells, cells were digested into single cell, and resuspended with PBS, analyzed by flow cytometer BD Influx, the ratio of cells positive for green fluorescence to cells positive for red fluorescence was the probability of transposition events occurred in HERVK. […]

Data set [1] relates to old mice. As to the kind of experiment: Abacavir injected to articular cavity of old mice (joint aging). Type of data set: in vivo, mouse. Here is the method:
10 μl Abacavir (in PBS with 2% DMSO) at the concentration of 10 mg/ml was injected to knee joint cavities of mice of 22 months old (n=12), injected once a week. Grip strength test was performed 4 weeks, 8 weeks and 12 weeks after the first injection. Motor coordination and balance, motor ability and Micro-CT were performed 14 weeks after the first injection, samples were taken, i.e., joints of mice hind limbs were taken out, one was frozen in liquid nitrogen and the other was fixed in 4% PFA.
(§1) Grip strength of the limbs was measured by Grip strength meter (Panlab Grip Strength Meter, LE902) in accordance with the manufacturer's instructions. In brief, mice were put on the top of grip strength meter and pulled along the grid at a constant rate, until mice loosened its grip. The peak tension in each of the 10 repeats was recorded, and the mean value was calculated as grip strength for each mouse.
Mice were placed on a running machine (SANS Bio Instrument, SA101) to test the motor ability of mice in accordance with the manufacturer's instructions. In particular, slope of runway was set as 5°, electrical stimulation was 2 mA, the running speed was set as follows: an initial velocity of 5 m/min for 5 min; then accelerating to final velocity of 25 m/min with an accelerated rate of 1 m/min 2, 20 mins in total. First, mice were trained for three consecutive days, and tested on the fourth day. The times of electrical stimulation, and the run distance in […] were recorded.
Micro-CT (PE Quantum FX) was performed in accordance with the manufacturer's instructions. In brief, mice were anesthetized and placed in the instrument, scanning parameters for Micro-CT were voltage 50Kvp, power 40 W, 6-frame superposition, field 4 cm×4 cm. Three-dimensional images were screenshot after scan and reconstruction, and bone density was calculated by Ansys software.
5.2. Retrovirus inhibitor Abacavir delayed joint aging of old mice Retrovirus inhibitor Abacavir was injected to articular cavity of old mice (23 months old), concentration was 10 mg/ml, once a week, 10 μl every time (as shown by FIG. 32A). (n=10)

Data set [2] deals with old mice. The experiment in a line: Long-term oral administration of Abacavir in drinking water to old mice. Type of data set: in vivo, mouse. Conditions: for mice died: n=23. Here is the method: Abacavir was dissolved in drinking water containing 0.4% DMSO at 2 mg/ml, mice of 18 months old were administered by feeding the water daily (n=23). The weight, hollow back, hair, skin, eye (cataract) and activity score of mice were measured 6 weeks, 12 weeks and 24 weeks after administration, grip strength was measured and a survival curve was plotted. […]
as §1
Mice were placed in the end of any arm of Y maze (trisection radiation maze, consisting of 3 arms with equal length (50 cm×18 cm×35 cm), the intersection angle between every two arms was 120 degree), allowed to explore freely for 5 min, animal behavior changes in 5 min were recorded by camera system, and the short-term spatial memory ability of mice was detected by recording the total times that the mice entered the arms and the rotations that the mice entered in turn the three arms of the Y maze.
Retrovirus inhibitor Abacavir was dissolved in drinking water for mice (containing 0.3% DMSO) at a concentration of 2 mg/ml (n=23), and mice of 18 months old was administered daily (as shown by FIG. 33A).

The next data set deals with cGAS-STING pathway. As to the kind of experiment: cGAS-STING innate immune pathway and SASP in hMPCs (Western blot, RT-qPCR). It counts as cell-based, human. To be noted: knockdown in HGPS and WS hMPCs. The protocol:
Cells were lysed in 1×SDS buffer (100 mM Tris-HCl, pH 6.8, 10% glycerol, 2% SDS and 2%2-mercaptoethanol), boiled for 10 min at 105° C. Protein concentration was measured by BCA kit. Cell lysate was subjected to SDS-PAGE electrophoresis, then transferred to PVDF membrane (Millipore). The membrane was incubated with primary antibody, incubated with secondary antibody conjugated to HRP after washing, then blotted with substrate, the substrate was the mixture of 1000 μL substrate A and 3 μL substrate B (substrate A: 0.2 mM cumaric acid, 1.25 mM luminal, 0.1 M Tris-HCl, pH 8.5; substrate B: 3% H2O2) or Super Signal West Femto Maximum Sensitivity Substrate (Thermo Fisher Scientific). Images were taken by Image Lab software. Quantification was conducted by ImageJ.
In accordance with the manufacturer's instructions, total RNA of cell was extracted by TRIzol (Thermo Fisher Scientific); reverse transcribed into cDNA with GoScript reverse transcription system (Promega) for RT-qPCR; RT-qPCR was conducted with THUNDERBIRD qPCR Mix (TOYOBO) and CFX384 real-time system (Bio-Rad Laboratories, Inc.).
To further study the activation of cGAS-STING DNA sensing pathway, the following key characteristics in different senescent hMPCs (including RS, HGPS and WS) and fibroblasts were detected: […] TANK binding kinase 1 (TBK1) and IFN regulating factor 3 (IRF3) as well as proinflammatory cytokines (e.g., IL1B andIL6), these factors were regarded as SASP factors.
For orientation: Immunoblotting shows a protein as a band on a membrane.

Data set [3] has as its system old mice. The experiment in a line: Long-term intraperitoneal injection of Ratelgravir to old mice. It counts as in vivo, mouse. To be noted: 16 weeks. Here is the method:
Ratelgravir was dissolved at 50 mg/ml in 30% PEG300+2% Tween80+2% DMSO, and intraperitoneally injected to mice at 18 months old, […] each time, twice a week (n=23). The weight, hollow back, hair, skin, cataract and activity score of mice were measured 8 weeks and 16 weeks after first injection, grip strength was measured and a survival curve was plotted.
as §1
The retrovirus integrase inhibitor Ratelgravir was dissolved in 30% PEG300+2% Tween80+2% DMSO at a concentration of 50 mg/ml, mice at 18 months old was injected intraperitoneally, […], 200 μl/injection, twice a week (as shown by FIG. 34A).

Setting [4] is: articular cavity injection, P value not significant.
Setting [5] is: drinking water 2 mg/ml, 24 weeks.
The mark [6] stands for this setting: drinking water 2 mg/ml, 30 weeks.

This note sets out measurements from US20240060131A1, “METHOD FOR IDENTIFYING AND/OR REGULATING SENESCENCE” (INSTITUTE OF ZOOLOGY, CHINESE ACADEMY OF SCIENCES, priority 2020, published 2024).

For the compound `Nc1nc(NC2CC2)c2ncn([C@H]3C=C[C@@H](CO)C3)c2n1` [Abacavir, abacavir], in the data set on WS hMPC, the Ki67 positive cells entry was “increase” and the SA-β-gal positive cells entry was “reduce”. Also, in the data set on WS hMPC (listed as abacavir), the Ki67 positive cells entry is listed as “significantly were increased” and the SA-β-gal positive cells result is on record as “significantly were decreased”. Besides, in the data set on HERVK, the “HERVK DNA copy number” value was “decreases” and the HERVK transposition events entry is on record as “reduces”. Further, in the data set with HERVK (listed as abacavir), the “HERVK DNA copy number” value is on record as “effectively reduce” and the HERVK transposition events entry was “effectively reduce”. Moreover, in the data set on old mice [1] (15 weeks after injecting), the “bone density of joint” value is on record as “increased”. Besides, in the data set with old mice [1] (RT-qPCR of joint RNA), the “expression of senescence-associated protein p21 in joint” value is “decreased”, the “level of inflammatory factor IL1B in joint” value is given as “decreased” and the “level of inflammatory factor IL6 in joint” value is recorded as “decreased”. Further, in the data set with old mice [1] (setting [4]), the “forced treadmill running distance” value is listed as “improve” and the “forced treadmill running time” value is “improve”. Moreover, in the data set on old mice [1] (articular cavity injection, trend, P value not significant), the “forced treadmill shocked time” value is reported as “reduce”. Moreover, the “limb tension of mice” value with old mice [1] (old mice (23 months old), articular cavity 10 mg/ml, 10 μl once a week, 8 weeks after injecting, vs vehicle) is given as “significantly was enhanced”. For the same compound, the mice died in the data set on old mice [2] (24 weeks after administering, control group 2 died) is 0. Moreover, the mice died with old mice [2] (30 weeks after administering, control group 4 died) is 1. Moreover, the “spatial short-term memory ability” value with old mice [2] (Y Maze, 30 weeks) was “enhanced”. Moreover, in the data set on old mice [2] (setting [5]), the condition of hair entry is given as “improve”, the “condition of hollow back” value is recorded as “improve” and the “mobility ability of mice” value is listed as “enhance”. Besides, in the data set with old mice [2] (setting [6]), the “Y Maze rotations that the mice entered in turn the three arms” value was “increased” and the “Y Maze total times that the mice entered the arms” value is “increased”. Moreover, the “survival rate of old mice” value in the data set with old mice [2] (drinking water 2 mg/ml, up to 30 weeks) was “improve”. For the same compound, in the data set on old mice [2] (mice of 18 months old, 2 mg/ml in drinking water daily, 12 weeks), the “limb tension of mice” value is “significantly enhanced”.
Take “shSTING-2 (guide GCCCGGATTCGAACTTACAAT; chemistry not given here)”: in the data set with cGAS-STING pathway, the SASP result is listed as “alleviated”, the cell senescence result was “alleviated”, the “phosphorylation level of IRF3” value was “reduced” and the “phosphorylation level of RelA” value is given as “reduced”. In the data set on cGAS-STING pathway, the “phosphorylation level of TBK1” value is given as “reduced”.
As to `Cc1nnc(C(=O)NC(C)(C)c2nc(C(=O)NCc3ccc(F)cc3)c(O)c(=O)n2C)o1` [Raltegravir], in the data set with WS hMPC, the Ki67 positive cells result is on record as “significantly were increased” and the SA-β-gal positive cells entry was “significantly were decreased”. In the data set with WS hMPC (listed as Ratelgravir), the Ki67 positive cells entry was “increase” and the SA-β-gal positive cells result is listed as “reduce”. Also, in the data set on old mice [3] (i.p. twice a week), the condition of hair entry is given as “improve” and the “condition of hollow back” value is “improve”. Also, the “limb tension of mice” value in the data set with old mice [3] (mice at 18 months old, 50 mg/ml, 200 μl i.p. twice a week, vs vehicle) was “significantly was increased”.
